# Assays:
# [1] = biological target: KRAS^G12D mutant protein binding to RBD region fragment of RAF1 protein (Homo sapiens (Human), UniProt P01116, G12D); assay: KRAS-RAF1 binding assay (HTRF), KRAS G12D; settings: His-KRAS^G12D, GST-RAF1-RBD, GTP
# Description: (§1) GST-RAF1-RBD was purchased from BPS Bioscience; Cat. NO.: 100519; KRAS^G12D was purchased from BPS Bioscience; Cat. NO.: 100623; KRAS^wt was purchased from Reactionbiology; GTP was purchased from Sigma; Cat. NO.: G8877; Mab Anti GST-XL665 was purchased from cisbio; Cat. NO.: 61GSTXLF; Eu-W1024-anti-6×HIS was purchased from PE; Cat. NO.: AD0111; ProxiPlate-384-Plates was purchased from PerkinElmer; Cat. NO.: 6008289; DMSO was purchased from VWR AMRESCO; Cat. NO.: 0231-500ML; microplate reader was purchased from PerkinElmer; Cat. NO.: Envison;
# (§2) This experiment is intended to investigate the inhibitory effect of compounds on the binding of KRAS^G12D mutant protein or KRAS^Wt (wild type) protein to fragments of the RBD region fragment of RAF1 protein. A 500×3-fold gradient concentration stock of compound was prepared using DMSO and diluted 50-fold into a 10× stock of compound using reaction buffer. To the reaction wells of an ELISA plate (ProxiPlate-384-Plates), was first added 3 µL of His-KRAS^G12D protein or KRAS^wt protein, then added 1 μL of 200 µM GTP and incubated for 30 min, then added 2 μL of 10× compound or reaction buffer with 2% DMSO (positive control) and incubated for 30 min, then added 4 μL of GST-RAF1-RBD protein or reaction buffer (negative control) and incubated for 15 min, then added […] anti-His antibody and XL665-labeled anti-GST antibody mixed well in advance and incubated for 60 min before reading HTRF signal by microplate reader. The inhibition ratio of compounds on KRAS protein (G12D mutant or wild type) and RAF1 binding was calculated IR (%)=(positive control signal-compound well signal)/(positive control signal-negative control signal)×100% and IC50 values were calculated by fitting compound concentrations and corresponding inhibition ratios using the Prism 8 four-parameter method. […] While the inhibition IC50 values of the compounds on the binding of KRAS^wt (wild type) protein to the RBD region fragment of RAF1 protein was more than 40 nM or 100 nM, or more than 500 nM, or even more than 1 μM or 2 μM.
# [2] = biological target: KRAS^wt (wild type) protein binding to RBD region fragment of RAF1 protein (Homo sapiens (Human), UniProt P01116); assay: KRAS-RAF1 binding assay (HTRF), KRAS wild type; settings: GST-RAF1-RBD, GTP
# Description: as §1, §2
# [3] = test system: p-ERK in AGS cells (KRAS^G12D mutation); assay: Cell p-ERK detection assay; assay type: cell-based, human; settings: 3 h incubation, HTRF
# Description: AGS was purchased from ATCC; Cat. NO.: CRL-1739; F12K was purchased from Gibco; Cat. NO.: 21127-022; FBS was purchased from Gibco; Cat. NO.: 10099-141C; Trypsin (containing EDTA) was purchased from Gibco; Cat. NO.: 25200-072; DMSO was purchased from VWRAMRESCO; Cat. NO.: 0231-500ML; 96-well cell culture plate was purchased from Corning; Cat. NO.: 3599; An white background opaque 96-well plate was purchased from Cisbio; Cat. NO.: 66PL96025; Advance ERK phospho-T202/Y204 kit was purchased from Cisbio; Cat. NO.: 64AERPEH; Cell Counters were purchased from CHEMOMETEC; Model NO.: NC-200; microplate reader was purchased from PerkinElmer; Model NO.: Envison.
# AGS is an endogenous human gastric adenocarcinoma cell line containing KRAS^G12D mutation, cultured in F12K+10% FBS medium. On the first day of the experiment, cells in the logarithmic growth phase were taken, digested with trypsin (containing EDTA), collected, and counted, and approximately 20,000 cells/well were inoculated in 96-well cell culture plates and cultured overnight in a 5% CO2 incubator. A 1000×3.16-fold gradient concentration stock of the compound was prepared using DMSO, diluted 200-fold into a 5× compound stock using the medium described above, and a 5× compound stock was added to each cell culture well the day after cell inoculating at a final concentration of 1× and a DMSO content of 0.1%. DMSO was used as an experimental control. After the compound was added and the incubation was continued for 3 h, the medium in the culture wells was removed, […] of cell lysis solution (from Advance ERK phospho-T202/Y204 kit, the same below) was added to each well, mixed well and incubated for 30 min, then […] of the mixed solution was transferred to a white background opaque 96-well plate, and another well was taken as a blank well with adding […] of cell lysis solution. After the transfer, […] of p-ERK HTRF antibody mixed solution (from Advance ERK phospho-T202/Y204 kit) was added to each well, after incubation for 4 h, HTRF fluorescence value (RLU) was read by a microplate reader, and p-ERK level inhibition ratio of the compound was calculated IR (%)=(RLU control-RLU compound)/(RLU control-RLU blank)×100%, compound concentration and corresponding cell p-ERK level inhibition ratio were fitted using Prism 8 four-parameter method, and IC50 value was calculated.
# [4] = test system: AGS cells (KRAS^G12D mutation); assay: Cell proliferation inhibition assay (3D, CellTiter-Glo), AGS; assay type: cell-based, human; settings: 3D cell model, 5 days
# From the text: (§3) AsPC-1 was purchased from ATCC; Cat. NO.: CRL-1682; AGS was purchased from ATCC; Cat. NO.: CRL-1739; RPMI1640 was purchased from Gibco; Cat. NO.: 11875-093 2235123; F12K was purchased from Gibco; Cat. NO.: 21127-022; FBS was purchased from Gibco; Cat. NO.: 10099-141C; Trypsin (containing EDTA) was purchased from Gibco; Cat. NO.: 25200-072; CellTiter Glo-3D was purchased from Progema; Cat. NO.: G9683; 384-well sphere plates were purchased from coming; Cat. NO.: 3830; White background opaque 384-well plates were purchased from coming; Cat. NO.: 3570; Cell Counters were purchased from CHEMOMETEC; Model NO.: NC-200; microplate reader was purchased from PerkinElmer; Model NO.: Envison;
# (§4) AsPC-1 is an endogenous human pancreatic cancer cell containing KRAS^G12D mutation, which is cultured in RPMI-1640 medium containing 10% FBS; AGS human gastric cancer cell line containing KRAS^G12D mutation, cultured in F-12K medium containing 10% FBS. Cells in the logarithmic growth phase were taken, digested with trypsin (containing EDTA), harvested and counted, and inoculated with 800 AsPC-1 cells/well or 400 AGS cells/well, respectively, in 384-well sphere plates and cultured overnight at 5% C02 to establish a 3D cell model. A 3.16-fold gradient concentration stock solution of 1000× compound was prepared using DMSO, diluted 100-fold into a 10× compound stock solution using media, and a 10× compound stock solution was added to each cell culture well the day after cell inoculating at a final concentration of 1× with a DMSO content of 0.1%. DMSO was used as an experimental control (control) and culture medium as a blank control (blank). After the addition of compounds, the cells were cultured for 5 days. […] CellTiter-Glo working solution was added to each well, mixed well, and incubated for 30 min. After standing for 30 min at room temperature, 40 μl of the mixed solution was transferred to a white background opaque 384-well plate. Luminescence chemiluminescence value was read on a microplate reader, and the cell proliferation inhibition ratio was calculated, IR (%)=(RLU control-RLU compound)/(RLU control-RLU blank)×100%. XLFit four-parameter method was used to fit the gradient dilution concentration of compounds and the corresponding cell proliferation inhibition ratio, and the IC50 value was calculated. […] Results for exemplary of the example compounds are shown in Table 3 below. - indicates not detected.
# [5] = test system: AsPC-1 cells (KRAS^G12D mutation); assay: Cell proliferation inhibition assay (3D, CellTiter-Glo), AsPC-1; assay type: cell-based, human; settings: 3D cell model, 5 days
# From the text: as §3, §4
# Sequence of KRAS^wt (wild type) protein binding to RBD region fragment of RAF1 protein (P01116-2 other isoform, or with tags, fused parts or gaps): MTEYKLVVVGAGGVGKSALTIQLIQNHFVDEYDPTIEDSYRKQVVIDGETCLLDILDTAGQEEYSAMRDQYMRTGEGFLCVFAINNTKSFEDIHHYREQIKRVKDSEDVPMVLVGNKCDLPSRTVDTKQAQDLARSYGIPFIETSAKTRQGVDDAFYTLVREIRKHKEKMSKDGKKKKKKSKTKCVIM
# Sequence of KRAS^G12D mutant protein binding to RBD region fragment of RAF1 protein (P01116-2 other isoform, or with tags, fused parts or gaps G12D): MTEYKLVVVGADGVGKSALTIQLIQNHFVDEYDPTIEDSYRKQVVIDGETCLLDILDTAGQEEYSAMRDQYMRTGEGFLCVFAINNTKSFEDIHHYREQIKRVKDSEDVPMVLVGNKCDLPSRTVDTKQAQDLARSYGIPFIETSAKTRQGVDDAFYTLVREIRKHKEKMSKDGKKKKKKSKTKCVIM
Structure (SMILES),IC50 [1] [nM],IC50 [2] [nM],"IC50 ([3]; Homo sapiens, AGS, 3 h) [nM]","IC50 ([4]; Homo sapiens, AGS, 120 h) [nM]",IC50 [5] [nM],IC50 [3] [nM],IC50 [4] [nM],"IC50 ([5]; Homo sapiens, ASPC1, 120 h) [nM]"
C#Cc1cccc2cc(O)cc(-c3ncc4c(N5CC6CCC(C5)C6N)nc(OCC56CCCN5CCC6)nc4c3F)c12 (stereo not drawn) [Example Z2],186,788,,,,,,
"C#Cc1cccc2cccc(-c3ncc4c(N5C[C@H]6C=C[C@@H](C5)N6)nc(OCC56CCCN5CCC6)nc4c3F)c12 [Example Z6, 4-((1R,5S)-3,8-diazabicyclo[3.2.1]oct-6-en-3-yl)-7-(8-ethynylnaphthalen-1-yl)-8-fluoro-2-((tetrahydro-1H-pyrrolizin-7a(5H)-yl)methoxy)pyrido[4,3-d]pyrimidine]",51.6,> 10000,426,815,,,,
"C#Cc1cccc2cc(O)cc(-c3ncc4c(N5CC6CCC(C5)N6)nc(OCC56CCCN5CCC(=C)C6)nc4c3F)c12 [Example Z18, 4-(4-((1R,5S)-3,8-diazabicyclo[3.2.1]octan-3-yl)-8-fluoro-2-((7-methylenehexahydroindolin-8a(1H)-yl)methoxy)pyrido[4,3-d]pyrimidin-7-yl)-5-ethynylnaphthalen-2-ol]",59.4,> 1000,,,75.5,7.57,45.3,
"C#Cc1cccc2cc(O)cc(-c3ncc4c(N5C[C@H]6CC[C@@H](C5)N6)nc(OCC56CCN5CC(=C)C6)nc4c3F)c12 (stereo partly drawn) [Example Z19, 4-(4-((1R,5S)-3,8-diazabicyclo[3.2.1]octan-3-yl)-8-fluoro-2-((3-methylene-1-azabicyclo[3.2.0]heptan-5-yl)methoxy)pyrido[4,3-d]pyrimidin-7-yl)-5-ethynylnaphthalen-2-ol]",46,67.8,9.03,31.7,,,,68.3
"C#Cc1cccc2cc(O)cc(-c3ncc4c(N5C[C@H]6CC[C@@H](C5)N6)nc(OCC56CC(=C)CN5CC(F)C6)nc4c3F)c12 (stereo partly drawn) [Example Z17, 4-(4-((1R,5S)-3,8-diazabicyclo[3.2.1]octan-3-yl)-8-fluoro-2-((2-fluoro-6-methylenetetrahydro-1H-pyrrolizine 7a(5H)-yl)methoxy)pyrido[4,3-d]pyrimidin-7-yl)-5-ethynylnaphthalen-2-ol]",50,64.3,1.16,6.8,,,,35.7
C#Cc1cccc2cc(O)cc(-c3ncc4c(N5CC6CCC(C5)C6N)nc(OCC56CCCN5CCC6)nc4c3F)c12 (stereo not drawn) [Example Z1],256,2610,,,,,,
"C#Cc1cccc2cc(O)cc(-c3ncc4c(N5C[C@@H]6N[C@H](C5)[C@@H]5C[C@@H]56)nc(OCC56CCCN5CCC6)nc4c3F)c12 [Example Z10, 5-ethynyl-4-(8-fluoro-2-((tetrahydro-1H-pyrrolizin-7a(5H)-yl)methoxy)-4-((1R, 2S, 4R, 5S)-7,9-diazatricyclo[3.3.1.0^2,4]nonan-7-yl)pyrido[4,3-d]pyrimidin-7-yl)naphthalen-2-ol]",62.9,119,215,,,,,
"C#Cc1cccc2cc(O)cc(-c3ncc4c(N5C[C@H]6C=C[C@@H](C5)N6)nc(OCC56CCCN5CCC6)nc4c3F)c12 [Example Z4, 4-(4-((1R,5S)-3,8-diazabicyclo[3.2.1]oct-6-en-3-yl)-8-fluoro-2-((tetrahydro-1H-pyrrolizin-7a(5H)-yl)methoxy)pyrido[4,3-d]pyrimidin-7-yl)-5-ethynylnaphthalen-2-ol]",20.6,393,47.1,360,,,,
"C#Cc1cccc2cc(O)cc(-c3ncc4c(N5C[C@H]6CC[C@@H](C5)N6)nc(OCC56CC(=C)CN5CC5(CC5)C6)nc4c3F)c12 (stereo partly drawn) [Example Z23, 4-(4-((1R,5S)-3,8-diazabicyclo[3.2.1]octan-3-yl)-8-fluoro-2-((6′-methylenedihydro-1′H,3′H-spiro[cyclopropane-1,2′-pyrrolizin]-7a′(5′H)-yl)methoxy)pyrido[4,3-d]pyrimidin-7-yl)-5-ethynylnaphthalen-2-ol]",,,0.76,4.7,,,,33.2
"C#Cc1cccc2cc(O)cc(-c3ncc4c(N5C[C@H]6CC[C@@H](C5)N6)nc(OCC56CCCN5CCC6=C)nc4c3F)c12 (stereo partly drawn) [Example Z25, 4-(4-((1R,5S)-3,8-diazabicyclo[3.2.1]octan-3-yl)-8-fluoro-2-((1-methylenetetrahydro-1H-pyrrolizin-7a(5H)-yl)methoxy)pyrido[4,3-d]pyrimidin-7-yl)-5-ethynylnaphthalen-2-ol]",,,6.84,24.9,,,,70.7
